The subject of experiment [1] is AKR1C3. The settings on record: co-crystallised ligand of PDB 3UWE; cited from earlier work.
The target of experiment [2] is T1, AKR1C3 (Homo sapiens, UniProt P42330).
T1 construct: GST (own knowledge: pGEX vectors encode N-terminal GST); made in house; host or cells: E. coli BL21 DE3 Codon Plus RP, lysate
T1 sequence (P42330 1-323): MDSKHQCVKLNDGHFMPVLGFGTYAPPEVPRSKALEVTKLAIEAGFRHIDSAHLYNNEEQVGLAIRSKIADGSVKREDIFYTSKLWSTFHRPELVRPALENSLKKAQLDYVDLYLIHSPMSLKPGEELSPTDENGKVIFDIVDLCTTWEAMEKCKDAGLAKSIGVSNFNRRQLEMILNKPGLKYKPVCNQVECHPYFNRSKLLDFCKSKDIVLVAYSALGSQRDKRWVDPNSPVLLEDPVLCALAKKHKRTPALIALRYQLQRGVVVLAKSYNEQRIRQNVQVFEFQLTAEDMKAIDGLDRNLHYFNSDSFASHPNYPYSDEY
Nature of the experiment: AKR1C3 enzymatic inhibition assay (∆4-androstene-3,17-dione to testosterone). It is filed as biochemical. The settings on record: 10 µM compound, ∆4-androstene-3,17-dione reduction, triplicates, mean ± SD. The text has this: For enzymatic assays and inhibitor testing, all enzymes were cloned into bacterial or mammalian expression vectors. AKR1C3 and the human hydroxysteroid dehydrogenases HSD17B1, HSD17B2, HSD17B4 (SDR domain), HSD17B7, and HSD17B10 were cloned into a pGEX vector as described in [71, 72]. The coding sequences for AKR1C1, AKR1C2, and AKR1C4 were cloned by Gateway technology into the pcDNA3-N-MycDest vector according to the manufacturer’s instructions (Life Technologies, Carlsbad, CA, USA). The p11 plasmid coding for HSD17B14 (S205 variant) was a gift from Udo Opperman SGC Oxford, UK. For assays with HSD17B3, HEK293 cells stably expressing HSD17B3 were used. Enzymes were expressed in E. coli BL21 DE3 or E. coli BL21 DE3 Codon Plus RP (Stratagene, San Diego, CA, USA) or in HEK293 cells as described in [71, 72, 73]. Bacterial and cell pellets were stored at −20 °C and −80 °C, respectively, until use.
Inhibition assays were carried out as described in [71, 74]. […] For a detailed assay setup, see Supplementary Table S6. The incubation at 37 °C was stopped with 0.21 M ascorbic acid in methanol:acetic acid 99:1 (v:v) after the time needed to convert approximately 30% of the substrate in a control assay with 1% DMSO, without inhibitor candidate. Substrates and products were extracted from the reaction mixture by solid-phase extraction using C18 cartridges (Phenomenex, Aschaffenburg, Germany) and separated by RP–HPLC in a Beckman–Coulter HPLC Gold system, using the Luna 5 µm C18(2), 125 × 4.0 mm column (Phenomenex). The mobile phases used were H2O:ACN (57:43 (v:v); for assays of estrone (E1) to oestradiol (E2), E2 to E1, and ∆4-androstene-3,17-dione to testosterone conversion), H2O:ACN (49:51 (v:v); for assays of progesterone to 20α-hydroxyprogesterone conversion), and H2O:MeOH (35:65 (v:v) for assays of dihydrotestosterone (DHT) to 3α-androstanediol conversion) at a flow rate of 1 mL/min. Radioactivity was detected by online scintillation counting by using a radioactivity monitor (LB506D, Berthold Technologies, Bad Wildbad, Germany). Conversion of substrates to products was determined by integration of the peak area of the substrate and product peaks in percent. For calculation of inhibition, the conversion of control assay (assay without inhibitor) was set to 0% inhibition. All assays were run in triplicates, and mean values ± SD are reported.
For the determination of IC50 values, percent inhibition values were fitted using the Enzyme Kinetics module of SigmaPlot 13.0 and the one-site ligand-binding model according to the formula f = Bmax * abs(x)/(Kd + abs(x)).
Table S6: Activity assay setup […]
E1: estrone; E2: 17β-estradiol, A: Δ4-androstene-3,17-dione; T: testosterone, P: progesterone, 20αOHP: 20α-hydroxyprogesterone, DHT: dihydrotestosterone, 3α-Adiol: 3α-androstanediol, NaPi: 100 mM Na-phosphate buffer; PI: C0mplete protease inhibitor (Roche);. E.coli - Expression in E.coli BL21 DE3 Codon Plus RP except E.coli BL21 DE3 […]
application to antiparasitic and natural product synthesis. Eur J Org Chem […]
Synthesis of Xanthohumol analogues and discovery of potent thioredoxin reductase inhibitor as potential anticancer agent. J Med Chem 2015, 58,

In the next experiment the test system is 17β-HSD. Details: method as in PMID 11205867. The settings on record: human placental microsomes, compound concentration 10 µM; cited from earlier work.
For another experiment, the target named is aromatase. Details: method as in PMID 11205867. The following applies: human placental microsomes; cited from earlier work.
Another experiment has as its system DU145. Details: method as in PMID 12706007. The settings on record: human prostate cancer cell line DU145; read-out: IC50 growth inhibition DU145; cited from earlier work.
Another experiment deals with LNCaP. Set-up: method as in PMID 12706007. The following applies: human prostate cancer cell line LNCaP; read-out: IC50 growth inhibition LNCaP; cited from earlier work.

The values below come from publication PMC8876231, “Analogues of Natural Chalcones as Efficient Inhibitors of AKR1C3” (Metabolites, 2022).

Several values for one entry are separate records, joined by “and”; a condition that tells them apart may be missing. Equal values may be shown once.

For orientation: IC50 means the concentration that gives 50% inhibition. For the molecule `O=C(O)c1cccc(Oc2ccccc2)c1` [3-phenoxybenzoic acid], the IC50 in the experiment with AKR1C3 [1] is 0.68 µM. Usually inhibition stands for the drop in the measured response relative to a control, in per cent. A lower inhibition goes with little suppression. At AKR1C3 [2], `O=C(/C=C/c1ccc(O)c(O)c1)c1ccc(O)cc1O` [Butein (17), butein, reference compound] gave an inhibition at 10 µM of 37.2 ± 1.4%. As for `O=C(/C=C/c1ccc(Cl)cc1)c1c(O)cc(O)cc1O` [Compound 22], the “AKR1C3 Inhibition at 10 µM [%]” value on AKR1C3 [2] came to 70.8 ± 3.8%. Still for that read-out and setting: the figure for `COc1cc(O)cc(O)c1C(=O)/C=C/c1ccc(O)cc1` [Compound 24] is 24.6 ± 4.8%.

For `O=C(/C=C/c1ccc(F)cc1)c1c(O)cc(O)cc1O` [Compound 26], the “AKR1C3 Inhibition at 10 µM [%]” value on AKR1C3 [2] stood at 68.5 ± 6.4%.

Consider `COc1cc(O)cc(O)c1C(=O)/C=C/c1ccc(F)cc1` [Compound 27], for which, at AKR1C3 [2] (10 µM), the “AKR1C3 Inhibition at 10 µM [%]” value is 26.1% and 20.3 ± 8.4%.

On to `COc1cc(O)cc(O)c1C(=O)/C=C/c1ccc(Cl)cc1` [Compound 28], for which the “AKR1C3 Inhibition at 10 µM [%]” value on AKR1C3 [2] (10 µM) is 20.3% and 26.1 ± 2.0%. `O=C(/C=C/c1ccc(O)cc1)c1c(O)cc(O)cc1O` [Compound 29, naringenin chalcone]: on AKR1C3 [2], the “AKR1C3 Inhibition at 10 µM [%]” value worked out at 40.6 ± 7.7%. For the same molecule, the 17β-HSD inhibition in the experiment with 17β-HSD is given as 2.4%. The IC50 at aromatase is 2.6 µM. For the molecule `O=C(/C=C/c1ccc(O)cc1)c1ccc(O)cc1O` [Isoliquiritigenin (16), isoliquiritigenin, reference compound], testing at 10 µM at AKR1C3 [2] gave an inhibition of 31.1 ± 3.2%. Besides, the IC50 in the experiment on DU145 is 11 µM; in the experiment on LNCaP it was 13 µM. The 17β-HSD inhibition with 17β-HSD is on record as 10%.
